Here are results for nine molecules from patent publication US20250115573A1, “PYRIDAZINE-BASED PYRIDINE DERIVATIVES AS BIOLOGICALLY ACTIVE AGENTS” (priority 2023, published 2025).

Assay [1] in a line: DPPH antioxidant activity. The conditions noted are these: DPPH method; ascorbic acid's IC50 value normalized to 100%. The protocol: The antioxidant activity was assessed by the DPPH (1,1-diphenyl-2-picryl hydrazyl) method employing ascorbic acid as a standard. A 0.1 mM solution of DPPH was freshly prepared in ethanol. Different dilutions (25, 20, 15, 10 and 5 μg/mL) of compounds 1-12 and ascorbic acid were also prepared in ethanol. The test and standard solutions were prepared by adding DPPH solution (2 mL) to the different dilutions (6 mL each) of the compounds 1-12 and ascorbic acid, respectively. The control solution was prepared by adding DPPH solution (2 mL) to ethanol (6 mL). The resultant mixtures were shaken and kept at 25° C. for half an hour. The absorbance of the test, standard, and control solutions was measured at 517 nm using a UV-Visible spectrophotometer. The experiment was performed in triplicate, and the antioxidant activity was calculated using the following equation,
wherein Ac is the absorbance of the control, and As is the absorbance of the test or standard sample. The IC50 values were obtained from the regression analysis.
(In general: The DPPH test is a chemical assay of radical scavenging.)

In assay [2] the test system is Aspergillus niger (A. niger, MTCC 281). Put plainly: Antimicrobial activity, serial plate dilution method. In kind it is cell-based. Conditions: MTCC281, against A. niger, Sabouraud dextrose medium. The protocol:
(§1) Antimicrobial activity was performed by the serial plate dilution method (Medicinal Chemistry Research, 2017, 26, 1481-1496; Arabian Journal of Chemistry, 2016, 9, 1523-1531) against two Gram-positive bacteria, Staphylococcus aureus (S. aureus, ATCC 25923) and Enterococcus faecalis (E. faecalis, ATCC 29212); two Gram-negative bacteria, Escherichia coli (E. coli, ATCC 25922) and Pseudomonas aeruginosa (P. aeruginosa, ATCC 27853); and two fungi, Candida albicans (C. albicans, ATCC 2091) and Aspergillus niger (A. niger, MTCC 281). Antibacterial activity was performed on nutrient agar medium, whereas Sabouraud dextrose medium was used for the antifungal activity. The compounds 1-12 were tested at 100, 75, 50, 25, and 12.5 μg/mL concentrations. The standard antibiotics, ofloxacin and ketoconazole, were tested at 50, 25, and 12.5 μg/mL concentrations. Sterile dimethyl sulfoxide (DMSO) was used as a solvent for making the desired concentrations of the compounds ofloxacin and ketoconazole. Sterile DMSO also served as a control group. The minimum inhibitory concentrations (MICs) values of the synthesized compounds, ofloxacin and ketoconazole, were determined. The minimum inhibitory concentration (MIC) has been defined as the lowest concentration of a compound that inhibits the visible growth of the microorganisms in the media.

The subject of assay [3] is Candida albicans (C. albicans, ATCC 2091). The assay is described as above. In kind it is cell-based. Conditions: ATCC2091, against C. albicans, Sabouraud dextrose medium. The protocol:
as §1

Another assay addresses T1, human COX-2 (Homo sapiens, UniProt P35354).
T1 construct: purchased Cayman Chemicals 560131
T1 sequence (P35354 18-604): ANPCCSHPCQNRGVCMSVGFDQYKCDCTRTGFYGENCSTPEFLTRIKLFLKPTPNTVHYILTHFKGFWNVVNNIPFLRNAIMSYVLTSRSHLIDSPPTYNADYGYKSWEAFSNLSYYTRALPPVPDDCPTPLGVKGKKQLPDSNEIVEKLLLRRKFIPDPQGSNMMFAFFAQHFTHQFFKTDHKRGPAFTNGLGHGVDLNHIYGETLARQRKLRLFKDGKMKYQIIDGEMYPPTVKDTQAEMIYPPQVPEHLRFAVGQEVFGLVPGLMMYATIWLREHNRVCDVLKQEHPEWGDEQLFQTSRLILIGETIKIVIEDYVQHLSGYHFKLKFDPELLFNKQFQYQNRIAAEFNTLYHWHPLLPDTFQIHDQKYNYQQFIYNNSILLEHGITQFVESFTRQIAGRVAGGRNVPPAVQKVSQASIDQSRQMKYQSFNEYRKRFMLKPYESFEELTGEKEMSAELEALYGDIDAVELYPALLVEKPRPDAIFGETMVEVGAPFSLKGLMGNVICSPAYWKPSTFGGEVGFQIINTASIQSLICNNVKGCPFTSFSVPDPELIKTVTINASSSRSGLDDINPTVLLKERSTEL
Put plainly: In vitro COX-2 inhibitory activity. In kind it is biochemical. The conditions noted are these: for selectivity index: COX-2 over COX-1, selectivity index of celecoxib normalized to 100%; for COX-2 inhibitory activity in comparison to celecoxib: IC50 value of celecoxib normalized to 100%.

Assay [4] concerns Enterococcus faecalis (E. faecalis, ATCC 29212). Put plainly: Antimicrobial activity, serial plate dilution method. Conditions: ATCC29212, against E. faecalis, nutrient agar medium. In kind it is cell-based. The protocol:
as §1

Assay [5] relates to Staphylococcus aureus (S. aureus, ATCC 25923). The description is as above. In kind it is cell-based. The conditions noted are these: ATCC25923, against S. aureus, nutrient agar medium. The protocol:
as §1

The structures appear in SMILES notation. ≈ marks a conversion by molar mass, not a printed value.

The MIC is the smallest concentration in the dilution series that meets the test's criterion for growth inhibition.

In the case of `Cc1c(-n2c(N)c(C#N)c(-c3ccc(-n4nc(-c5ccccc5)ccc4=O)cc3)c(C#N)c2=O)c(=O)n(-c2ccccc2)n1C` [Compound 8, 6-Amino-1-(1,5-dimethyl-3-oxo-2-phenyl-2,3-dihydro-1H-pyrazol-4-yl)-2-oxo-4-(4-(6-oxo-3-phenylpyridazin-1(6H)-yl)phenyl) -1,2-dihydropyridine-3,5-dicarbonitrile], the “antioxidant activity in comparison to ascorbic acid” value (“antioxidant activity in comparison” for short) in assay [1] is on record as 78.32%.
As to `CC(=O)N1CCN(c2ccc(OCC3COC(Cn4ccnc4)(c4ccc(Cl)cc4Cl)O3)cc2)CC1` (stereo not shown) [ketoconazole, reference compound], the minimal inhibitory concentration (MIC) in assay [2] and in assay [3] was 12.5 µg/mL (≈ 23.5 µM) each time.
On human COX-2, `N#Cc1c(-c2ccc(-n3nc(-c4ccccc4)ccc3=O)cc2)c(C#N)c(=O)n(-c2ccc(S(N)(=O)=O)cc2)c1N` [Compound 10, 4-(6-amino-3,5-dicyano-2-oxo-4-(4-(6-oxo-3-phenylpyridazin-1(6H)-yl)phenyl)pyridin-1(2H)-yl)benzenesulfonamide] returned a selectivity index of 121.20%. For the same molecule, the “COX-2 inhibitory activity in comparison to celecoxib” value at human COX-2 is reported as 105.95%. Besides, the minimum inhibitory concentration (MIC) in assay [4] and in assay [5] was 25 µg/mL (≈ 44.5 µM) each time. In assay [1], the “antioxidant activity in comparison” value was 74%.
Consider `COc1ccccc1-n1c(N)c(C#N)c(-c2ccc(-n3nc(-c4ccccc4)ccc3=O)cc2)c(C#N)c1=O` [Compound 4, 6-Amino-1-(2-methoxyphenyl)-2-oxo-4-(4-(6-oxo-3-phenylpyridazin-1(6H)-yl)phenyl)-1,2-dihydropyridine-3,5-dicarbonitrile], for which, in assay [1], the “antioxidant activity in comparison” value is 71.95%.
Consider `N#Cc1c(-c2ccc(-n3nc(-c4ccccc4)ccc3=O)cc2)c(C#N)c(=O)n(-c2nccs2)c1N` [Compound 7, 6-Amino-2-oxo-4-(4-(6-oxo-3-phenylpyridazin-1(6H) -yl)phenyl)-1-(thiazol-2-yl)-1,2-dihydro-pyridine-3,5-dicarbonitrile], for which the selectivity index at human COX-2 is reported as 121.73%.
Still for that read-out and setting: under `N#Cc1c(-c2ccc(-n3nc(-c4ccccc4)ccc3=O)cc2)c(C#N)c(=O)n(-c2ccccn2)c1N` [Compound 6, 6-Amino-2-oxo-4-(4-(6-oxo-3-phenylpyridazin-1(6H) -yl)phenyl)-2H-[1,2′-bipyridine]-3,5-dicarbonitrile] stands 101.61%.
Regarding `CC1COc2c(N3CCN(C)CC3)c(F)cc3c(=O)c(C(=O)O)cn1c23` (stereo not shown) [ofloxacin, reference compound], the minimum inhibitory concentration (MIC) in assay [4] and in assay [5] was 25 µg/mL (≈ 69.2 µM) each time.
As to `N#Cc1c(-c2ccc(-n3nc(-c4ccccc4)ccc3=O)cc2)c(C#N)c(=O)n(-c2cccc(C(F)(F)F)c2)c1N` [Compound 9, 6-amino-2-oxo-4-(4-(6-oxo-3-phenylpyridazin-1(6H) -yl)phenyl)-1-(3-(trifluoromethyl)phenyl)-1,2-dihydropyridine-3,5-dicarbonitrile], on human COX-2, the selectivity index stood at 111.0% and the “COX-2 inhibitory activity in comparison to celecoxib” value came to 100.89%. In assay [2], this molecule had an MIC of 12.5 µg/mL (≈ 22.7 µM). In assay [3], this molecule came in with an MIC of 12.5 µg/mL (≈ 22.7 µM). For the same molecule, the “antioxidant activity in comparison” value in assay [1] came to 70.90%.
In the case of `O=C1O[C@H]([C@@H](O)CO)C(O)=C1O` [ascorbic acid, reference compound], the “antioxidant activity in comparison” value in assay [1] came to 100%.
